Results on 21 compounds are retold here after patent US9321756B2, “Azole compounds as PIM inhibitors” (priority 2011, dated 2016).

The structures appear in SMILES notation. Like-named read-outs stand apart in the source and are kept apart here.

Experiment [1] has as its target full length recombinant Pim-1 (Homo sapiens (Human), UniProt P11309). In words: Pim enzyme assay (HTRF, phosphorylation of biotinylated-BAD (S112) peptide), Pim-1. Type of experiment: biochemical.
For experiment [2], the target named is full length recombinant Pim-2 (Homo sapiens (Human), UniProt Q9P1W9). In words: Pim enzyme assay (HTRF, phosphorylation of biotinylated-BAD (S112) peptide), Pim-2. It counts as biochemical. The note with it: Pim-2 enzyme assay; read-out: Pim2_IC50.
For experiment [3], the target named is full length recombinant Pim-3 (Homo sapiens (Human), UniProt Q86V86). In words: Pim enzyme assay (HTRF, phosphorylation of biotinylated-BAD (S112) peptide), Pim-3. The note with it: Pim-3 enzyme assay; read-out: Pim3 IC50. It counts as biochemical. The essentials: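 Full-length recombinant Pim-3 phosphorylated biotinylated BAD (S112) peptide in 60 mM Hepes pH 7.0, 0.05% BSA, 2 mM DTT for 1 h 30 min at 22 °C. After EDTA stop, HTRF was read with Eu anti-phospho-BAD and streptavidin-APC. IC50 came from 4-parameter logistic fit of percent-of-control values.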
(In general: In TR-FRET formats the signal depends on donor and acceptor labels being close together.)

Experiment [4] deals with Pim-1 stably transfected U2OS human osteogenic sarcoma line. In words: Pim cell assay U2OS (phospho-BAD normalized against total BAD), Pim-1 transfected. Type of experiment: cell-based. The method, then: The cell lines used in the assay were generated by the stable transfection of either Pim-1 or Pim-2 into the U2OS human osteogenic sarcoma line. The assay for determination of the Pim activity in the engineered U2OS cell lines measures levels of phospho-BAD normalized against total BAD protein levels. It was conducted as follows:
The adherent cells were dissociated from the flasks using non-enzymatic cell dissociation solution (Sigma #C5914). […] The cells were then incubated overnight at 37° C., 5% CO2.
In addition to the 10-point dosing curve of the test compound, DMSO alone was run as the high control.
This dilution in DMSO was then diluted again into cell growth medium. Aliquots (12 μL) of the compound diluted in growth medium were then transferred to the appropriate wells of the 96-well plates containing cells to a final DMSO concentration of 0.3%. The cell plates were then incubated with compound for 29 min at 37° C., 5% CO2.
The cell plates containing lysis buffer were then immediately stored at −70° C.
These prepared lysates were then assayed for phospho and total BAD according to the manufacturer's protocols (Meso Scale Diagnostics, Cat#K15103C-3 & #K15103D-3). The plates were read on the MSD Sector Imager 6000, and results were calculated according to the assay protocols ((% Phosphoprotein=((2×Phospho signal)/(Phospho signal+Total signal))×100)).

Where [5] appears, read: Pim-1 enzyme assay, read-out: Pim_1_IC50.
The mark [6] stands for this setting: Homo sapiens, U2OS, read-out: U2OS Pim1_Cell_IC50.
Setting [7] is: Homo sapiens, U2OS, read-out: U2OS Pim1_Cell_IC50, U2OS cells, Pim-1 transfected.
[8] abbreviates: read-out: U2OS Pim1_Cell_IC50, U2OS cells, Pim-1 transfected.

full length recombinant Pim-1, sequence (P11309 whole entry): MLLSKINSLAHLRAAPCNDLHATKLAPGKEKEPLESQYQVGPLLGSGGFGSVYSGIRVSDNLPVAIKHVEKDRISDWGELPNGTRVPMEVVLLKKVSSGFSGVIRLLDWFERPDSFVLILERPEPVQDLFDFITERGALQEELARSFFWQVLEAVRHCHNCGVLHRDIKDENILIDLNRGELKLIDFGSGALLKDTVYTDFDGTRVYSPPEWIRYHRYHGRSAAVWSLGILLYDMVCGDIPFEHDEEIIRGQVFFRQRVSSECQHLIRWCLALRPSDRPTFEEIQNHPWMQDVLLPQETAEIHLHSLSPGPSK
full length recombinant Pim-2, sequence (Q9P1W9 whole entry): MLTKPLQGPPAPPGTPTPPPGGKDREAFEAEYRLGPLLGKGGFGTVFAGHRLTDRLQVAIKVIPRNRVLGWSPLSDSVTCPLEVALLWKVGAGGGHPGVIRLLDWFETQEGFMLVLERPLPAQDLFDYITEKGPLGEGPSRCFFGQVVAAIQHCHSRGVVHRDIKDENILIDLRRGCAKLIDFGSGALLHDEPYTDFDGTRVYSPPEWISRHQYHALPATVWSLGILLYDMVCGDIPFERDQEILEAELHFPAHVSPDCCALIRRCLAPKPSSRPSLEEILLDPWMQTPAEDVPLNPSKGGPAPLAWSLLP

In the case of `Nc1nnc(-c2ccc3[nH]cc(-c4cccc(N5CCCCC5=O)n4)c3c2)s1` [Example 181, 1-(6-(5-(5-amino-1,3,4-thiadiazol-2-yl)-1H-indol-3-yl)-2-pyridinyl)-2-piperidinone], the IC50 came to 98.1 nM in experiment [1] (setting [5]), 223 nM in experiment [2], 47 nM in experiment [3] and 2260 nM in experiment [4] (setting [6]).

Turning to `Fc1ccccc1-c1c[nH]c2ccc(-c3nnc(NCc4cccc5[nH]ccc45)s3)cc12` [Example 143, 5-(3-(2-fluorophenyl)-1H-indol-5-yl)-N-(1H-indol-4-ylmethyl)-1,3,4-thiadiazol-2-amine], the IC50 in experiment [1] (setting [5]) worked out at 145 nM; in experiment [2] it was 3020 nM; in experiment [3], 84.5 nM; in experiment [4] (setting [6]), 5200 nM.

Consider `NCCCNc1nnc(-c2ccc3[nH]cc(-c4ccccc4F)c3c2)s1` [Example 12, N-(5-(3-(2-fluorophenyl)-1H-indol-5-yl)-1,3,4-thiadiazol-2-yl)propane-1,3-diamine], for which the IC50 in experiment [1] (setting [5]) is 51.6 nM; in experiment [2], 155 nM; in experiment [3], 13.7 nM; in experiment [4] (setting [6]) it was 3170 nM.

Consider `Nc1nnc(-c2ccc3[nH]cc(-c4cncc(NC5CC5)n4)c3c2)s1` [Example 15, 5-(3-(6-(cyclopropylamino)pyrazin-2-yl)-1H-indol-5-yl)-1,3,4-thiadiazol-2-amine], for which the IC50 worked out at 4.57 nM in experiment [1] (read-out: Pim_1_IC50), 20.1 nM in experiment [2] and 108 nM in experiment [4] (setting [7]).

Regarding `Nc1nnc(-c2ccc3[nH]cc(-c4cccc(N5CCCC5)n4)c3c2)s1` [Example 14, 5-(3-(6-(pyrrolidin-1-yl)pyridin-2-yl)-1H-indol-5-yl)-1,3,4-thiadiazol-2-amine], the IC50 in experiment [1] (read-out: Pim_1_IC50) came to 11.1 nM; in experiment [2], 42 nM; in experiment [4] (setting [8]), 159 nM.

On to `Fc1ccccc1-c1c[nH]c2ccc(-c3nnc(N[C@H]4CCCNC4)s3)cc12` (stereo in doubt) [Example 139, N-(5-(3-(2-fluorophenyl)-1H-indol-5-yl)-1,3,4-thiadiazol-2-yl)-3-piperidinamine], for which the IC50 in experiment [1] (setting [5]) stood at 29.3 nM; in experiment [2], 106 nM; in experiment [3] it was 18.4 nM; in experiment [4] (setting [7]) it was 578 nM.

`CN1CCN(c2cnc(-c3c[nH]c4ccc(-c5nnc(N)s5)cc34)cn2)CC1` [Example 178, 5-(3-(5-(4-methyl-1-piperazinyl)-2-pyrazinyl)-1H-indol-5-yl)-1,3,4-thiadiazol-2-amine]: the IC50 in experiment [1] (setting [5]) amounted to 61.3 nM; in experiment [2], 459 nM; in experiment [3], 54.1 nM; in experiment [4] (setting [7]) it was 2250 nM.

`CN1CCN(c2cccc(-c3c[nH]c4ccc(-c5nnc(N)s5)cc34)n2)CC1=O` [Example 30, 4-(6-(5-(5-amino-1,3,4-thiadiazol-2-yl)-1H-indol-3-yl)pyridin-2-yl)-1-methylpiperazin-2-one]: the IC50 came to 13.3 nM in experiment [1] (read-out: Pim_1_IC50), 52.7 nM in experiment [2], 2.5 nM in experiment [3] and 1170 nM in experiment [4] (setting [7]).

Consider `Fc1ccccc1-c1c[nH]c2ccc(-c3nnc(NCC[C@H]4CCCCN4)s3)cc12` (stereo in doubt) [Example 141, 5-(3-(2-fluorophenyl)-1H-indol-5-yl)-N-(2-(2-piperidinyl)ethyl)-1,3,4-thiadiazol-2-amine], for which the IC50 in experiment [1] (setting [5]) stood at 74 nM; in experiment [2] it was 480 nM; in experiment [3], 49.6 nM; in experiment [4] (setting [6]) it was 1110 nM.

For the compound `Nc1nnc(-c2ccc3[nH]cc(-c4cccc(N5CCCC5)n4)c3c2)s1` [Example 176, 5-(3-(6-(1-pyrrolidinyl)-2-pyridinyl)-1H-indol-5-yl)-1,3,4-thiadiazol-2-amine], the results for the IC50 in experiment [1] (read-out: Pim_1_IC50), in experiment [2] and in experiment [4] (setting [8]) were 43.5 nM, 104 nM and 526 nM, respectively.

Regarding `Nc1ncc(-c2ccc3[nH]cc(-c4cccc(N5CCOCC5)n4)c3c2)s1` [Example 213, 5-(3-(6-(4-morpholinyl)-2-pyridinyl)-1H-indol-5-yl)-1,3-thiazol-2-amine], the IC50 was determined as 94.9 nM in experiment [1], 730 nM in experiment [2], 44.4 nM in experiment [3] and 1520 nM in experiment [4] (setting [6]).

With `Nc1nnc(-c2ccc3[nH]cc(-c4cccc(OC5CCCCC5)n4)c3c2)s1` [Example 173, 5-(3-(6-(cyclohexyloxy)-2-pyridinyl)-1H-indol-5-yl)-1,3,4-thiadiazol-2-amine], the IC50 came out at 40.5 nM in experiment [1] (setting [5]); 114 nM in experiment [2]; 1020 nM in experiment [4] (Homo sapiens, U2OS cells, Pim-1 transfected, read-out: U2OS Pim1_Cell_IC50).

`Fc1ccccc1-c1c[nH]c2ccc(-c3nnc(NCc4ccc5[nH]ccc5c4)s3)cc12` [Example 142, 5-(3-(2-fluorophenyl)-1H-indol-5-yl)-N-(1H-indol-5-ylmethyl)-1,3,4-thiadiazol-2-amine]: the results for the IC50 in experiment [1] (setting [5]), in experiment [2] and in experiment [3] were 109 nM, 1480 nM and 59.5 nM, respectively.

For the compound `CC(C)Oc1cc(F)cc(-c2c[nH]c3ccc(-c4nnc(N)o4)cc23)c1` [Example 79, 5-(3-(3-fluoro-5-(1-methylethoxy)phenyl)-1H-indol-5-yl)-1,3,4-oxadiazol-2-amine], the IC50 in experiment [1] (setting [5]) was determined as 154 nM; in experiment [2], 185 nM; in experiment [3], 85.8 nM.

`Cc1[nH]c2ccc(CNc3nnc(-c4ccc5[nH]cc(-c6ccc(F)cc6F)c5c4)s3)cc2c1C` [Example 147, 5-(3-(2,4-difluorophenyl)-1H-indol-5-yl)-N-((2,3-dimethyl-1H-indol-5-yl)methyl)-1,3,4-thiadiazol-2-amine]: the results for the IC50 in experiment [1] (setting [5]), in experiment [2] and in experiment [3] were 513 nM, above 3000 nM and 634 nM, respectively.

Turning to `Nc1nnc(-c2ccc3[nH]cc(-c4cncc(C(=O)N5CCOCC5)c4)c3c2)o1` [Example 82, 5-(3-(5-(4-morpholinylcarbonyl)-3-pyridinyl)-1H-indol-5-yl)-1,3,4-oxadiazol-2-amine], the IC50 in experiment [1] (setting [5]) is 2350 nM; in experiment [2] it was 1780 nM; in experiment [3], 2380 nM.

Take `C[C@H]1CCCCN1c1nc(-c2c[nH]c3ccc(-c4nnc(N)s4)cc23)cs1` (stereo in doubt) [Example 184, 5-(3-(2-(2-methyl-1-piperidinyl)-1,3-thiazol-4-yl)-1H-indol-5-yl)-1,3,4-thiadiazol-2-amine]: the IC50 in experiment [1] (setting [5]) was found to be 161 nM; in experiment [2], 602 nM; in experiment [3] it was 94.7 nM.

For `Brc1nnc(-c2ccc3[nH]cc(-c4cccc(N5CCOCC5)n4)c3c2)s1` [Example 27, 4-(6-(5-(5-bromo-1,3,4-thiadiazol-2-yl)-1H-indol-3-yl)pyridin-2-yl)morpholine], the IC50 in experiment [1] (setting [5]) is 1310 nM; in experiment [2] it was above 3000 nM; in experiment [3], 399 nM.

`Cc1ccccc1-c1ccnc(-c2c[nH]c3ccc(-c4nnc(N)o4)cc23)n1` [Example 124, 5-(3-(4-(2-methylphenyl)-2-pyrimidinyl)-1H-indol-5-yl)-1,3,4-oxadiazol-2-amine]: the values for the IC50 in experiment [1] (setting [5]), in experiment [2] and in experiment [3] were 27.9 nM, 33.4 nM and 17.2 nM, respectively.

`Nc1nnc(-c2ccc3[nH]cc(-c4cnc5ccccc5c4)c3c2)s1` [Example 21, 5-(3-(quinolin-3-yl)-1H-indol-5-yl)-1,3,4-thiadiazol-2-amine]: the IC50 stood at 178 nM in experiment [1] (setting [5]), 1010 nM in experiment [2] and 179 nM in experiment [3].

With `Nc1nnc(-c2ccc3[nH]cc(-c4cc(C(=O)Nc5ccccc5)ccc4F)c3c2)s1` [Example 137, 3-(5-(5-amino-1,3,4-thiadiazol-2-yl)-1H-indol-3-yl)-4-fluoro-N-phenylbenzamide], the results for the IC50 in experiment [1] (setting [5]), in experiment [2] and in experiment [3] were 176 nM, 237 nM and 90.3 nM, respectively.
